Like-named read-outs stand apart in the source and are kept apart here.
Columns and labels:
plasmin = molecular target: T1, plasmin (Homo sapiens, UniProt P00747); assay: Inhibition of plasmin (PTH); assay type: biochemical; settings: pH 8.9, 10 minute preincubation, 22° C.
T1 construct: from tissue; host or cells: human plasma
Experimental: (§1) HLE, CTG, PPE and CTD were tested at 30° C. and the others were
(§2) TRY, trypsin; THR, thrombin; PTH, plasmin; CTC, cathepsin C; ATM,
Enzyme: Purified plasmin from human plasma Substrate: Tosyl-glyclyl-L-prolyl-L-lysine-pNA acetate
Reaction mixture: 50 mM Tris-HCl buffer (pH 8.9), 500 mM NaCl, 5% DMSO, 0.5 mM Substrate.
(§3) Except for Cathepsin D, the enzyme activities were determined by monitoring the increase in absorbance at 410 nm caused by the hydrolysis of chromogenic substrates. The activity of Cathepsin D was determined by monitoring the absorbance of 5% trichloroacetic acid-soluble material at 280 nm.
(§4) Inhibition of enzymes by the compounds described were determined after a 10 minute preincubation with enzymes in reaction mixtures minus substrate. Reactions were initiated by the addition of substrates. The concentration used for assays were porcine pancreatic elastase at 240 nM and human Cathepsin G at 50 nM. Cathepsin D was used at the concentration that produced approximately 0.15 O.D. increase per 20 min at 280 nm under the standard conditions. All other proteases were assayed at the concentrations that produced approximately 0.1 O.D. change per minute at 410 nm under the standard conditions.

[1] = molecular target: T2, human leukocyte elastase (HLE) (Homo sapiens, UniProt P08246); assay: Enzyme Assay for Inhibition of HLE; assay type: biochemical; settings: HLE 10 nM, pH 7.6, 10 minute preincubation, 30° C.
T2 construct: from tissue; host or cells: human white blood cells
T2 sequence (P08246 30-247 limits assumed): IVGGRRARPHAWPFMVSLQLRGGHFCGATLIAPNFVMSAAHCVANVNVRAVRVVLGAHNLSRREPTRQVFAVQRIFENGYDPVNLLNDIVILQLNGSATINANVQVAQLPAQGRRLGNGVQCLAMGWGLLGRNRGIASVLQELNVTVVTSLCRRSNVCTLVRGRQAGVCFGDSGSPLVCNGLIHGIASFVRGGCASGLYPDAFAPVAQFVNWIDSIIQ
Experimental: Enzyme Assay for Inhibition of HLE:
Enzyme: Purified elastase from human white blood cells.
Substrate: MeO-succinyl-L-alanyl-L-alanyl-L-prolyl-L-valine-p-nitro-anilide(NA).
Reaction Mixture: 10 mM phosphate buffer (pH 7.6), 500 mM NaCl, 10% dimethylsulfoxide (DMSO), 0.35 mM substrate.
The enzyme activity was determined by monitoring the increase in absorbance at 410 nm caused by the hydrolysis of chromogenic substrates. Inhibition of enzyme by the compounds described were determined after a 10 minute preincubation with the enzyme in reaction mixture minus substrate. Reaction was initiated by the addition of substrate. The concentration of human leukocyte elastase used for assay was at 10 nM.
HLE, CTG, PPE and CTD were tested at 30° C. and the others were […]

aminopeptidase M = molecular target: T3, aminopeptidase M (Sus scrofa, UniProt P15145); assay: Inhibition of aminopeptidase M (ATM); assay type: biochemical, porcine
T3 construct: from tissue; host or cells: porcine kidney
T3 sequence (P15145 1-963): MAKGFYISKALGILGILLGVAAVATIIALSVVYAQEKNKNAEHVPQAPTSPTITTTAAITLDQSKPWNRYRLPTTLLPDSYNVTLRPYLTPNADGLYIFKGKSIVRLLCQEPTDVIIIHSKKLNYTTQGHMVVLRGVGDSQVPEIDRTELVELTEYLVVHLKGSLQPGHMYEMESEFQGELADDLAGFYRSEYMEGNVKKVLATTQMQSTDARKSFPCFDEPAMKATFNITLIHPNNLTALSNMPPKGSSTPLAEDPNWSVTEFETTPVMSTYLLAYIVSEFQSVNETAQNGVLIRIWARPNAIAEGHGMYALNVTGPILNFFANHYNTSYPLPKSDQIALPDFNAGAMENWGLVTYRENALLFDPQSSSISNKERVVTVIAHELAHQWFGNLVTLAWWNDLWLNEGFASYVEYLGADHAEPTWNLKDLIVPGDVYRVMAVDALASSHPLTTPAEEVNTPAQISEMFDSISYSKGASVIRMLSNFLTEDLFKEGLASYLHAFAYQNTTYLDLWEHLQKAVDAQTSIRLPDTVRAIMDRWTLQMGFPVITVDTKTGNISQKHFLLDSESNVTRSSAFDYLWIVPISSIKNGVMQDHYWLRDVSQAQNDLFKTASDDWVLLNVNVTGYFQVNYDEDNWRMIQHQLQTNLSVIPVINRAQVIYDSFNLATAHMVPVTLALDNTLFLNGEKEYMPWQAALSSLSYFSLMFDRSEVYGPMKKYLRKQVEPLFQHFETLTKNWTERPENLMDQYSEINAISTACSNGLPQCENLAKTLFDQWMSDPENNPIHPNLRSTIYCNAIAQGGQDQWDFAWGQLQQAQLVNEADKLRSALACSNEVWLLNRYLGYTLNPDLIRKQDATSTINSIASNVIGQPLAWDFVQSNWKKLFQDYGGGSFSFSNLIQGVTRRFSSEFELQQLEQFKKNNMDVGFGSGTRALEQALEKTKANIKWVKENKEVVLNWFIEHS
Experimental: as §1, §2
aminopeptidase M; CTG, cathespin G; CTD, cathespin D; PPE, porcine
Enzyme: Purified aminopeptidase M from porcine kidney
Reaction Mixture: 50 mM Tricine buffer (pH 7.5), 500 mM NaCl, 10% DMSO, 2.0 mM Substrate.
as §3, §4

cathepsin D = molecular target: T4, cathepsin D (Bos taurus, UniProt P80209); assay: Inhibition of cathepsin D (CTD); assay type: biochemical, bovine; settings: cathepsin D, pH 3.2, 10 minute preincubation, 30° C.; read-out: IC50 CTD
T4 construct: from tissue; host or cells: bovine spleen
T4 sequence (P80209 45-390): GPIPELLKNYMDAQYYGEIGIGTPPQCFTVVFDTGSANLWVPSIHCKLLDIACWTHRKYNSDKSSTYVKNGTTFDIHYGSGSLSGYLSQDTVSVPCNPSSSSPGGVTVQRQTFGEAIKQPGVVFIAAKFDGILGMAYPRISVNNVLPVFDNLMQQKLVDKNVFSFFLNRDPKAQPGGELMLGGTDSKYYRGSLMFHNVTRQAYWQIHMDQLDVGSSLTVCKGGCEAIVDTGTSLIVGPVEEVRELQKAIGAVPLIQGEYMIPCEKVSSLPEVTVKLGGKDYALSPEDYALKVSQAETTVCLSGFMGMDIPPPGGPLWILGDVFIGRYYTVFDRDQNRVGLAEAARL
Experimental: as §4, with “Except for Cathepsin D, the enzyme activities were determined by monitoring the increase in absorbance at 410 nm caused by the hydrolysis of chromogenic substrates. The activity of Cathepsin D was determined by monitoring the absorbance of 5% trichloroacetic acid-soluble material at 280 nm. Inhibition” for “Inhibition”, “The concentration used for assays were porcine pancreatic elastase at 240 nM and human Cathepsin G at 50 nM.” left out

thrombin = molecular target: T5, thrombin (Homo sapiens, UniProt P00734); assay: Inhibition of thrombin (THR); assay type: biochemical; settings: pH 8.6, 10 minute preincubation, 22° C.
T5 construct: from tissue; host or cells: human plasma
Experimental: as §1, §2
Enzyme: Purified thrombin from human plasma
Substrate: Tosyl-glycyl-L-prolyl-L-arginine-p-NA acetate
Reaction mixture: 50 mM Tricine-NaOH buffer (pH 8.6), 500 mM NaCl, 0.1% Polyethyleneglycol 8000, 10% DMSO, 0.5 mM Substrate.
as §3, §4

[2] = aminopeptidase M, pH 7.5, 10 minute preincubation, 22° C., read-out: IC50 ATM

T1 sequence (P00747 581-810 limits assumed): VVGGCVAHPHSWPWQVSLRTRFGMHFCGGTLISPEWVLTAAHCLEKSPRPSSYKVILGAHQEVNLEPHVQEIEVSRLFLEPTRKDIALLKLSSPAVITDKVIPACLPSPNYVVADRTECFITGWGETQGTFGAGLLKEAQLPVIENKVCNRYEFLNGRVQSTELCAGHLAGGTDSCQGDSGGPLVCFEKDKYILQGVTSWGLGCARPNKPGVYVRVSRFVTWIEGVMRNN
T1 sequence (P00747 97-580 partner limits assumed): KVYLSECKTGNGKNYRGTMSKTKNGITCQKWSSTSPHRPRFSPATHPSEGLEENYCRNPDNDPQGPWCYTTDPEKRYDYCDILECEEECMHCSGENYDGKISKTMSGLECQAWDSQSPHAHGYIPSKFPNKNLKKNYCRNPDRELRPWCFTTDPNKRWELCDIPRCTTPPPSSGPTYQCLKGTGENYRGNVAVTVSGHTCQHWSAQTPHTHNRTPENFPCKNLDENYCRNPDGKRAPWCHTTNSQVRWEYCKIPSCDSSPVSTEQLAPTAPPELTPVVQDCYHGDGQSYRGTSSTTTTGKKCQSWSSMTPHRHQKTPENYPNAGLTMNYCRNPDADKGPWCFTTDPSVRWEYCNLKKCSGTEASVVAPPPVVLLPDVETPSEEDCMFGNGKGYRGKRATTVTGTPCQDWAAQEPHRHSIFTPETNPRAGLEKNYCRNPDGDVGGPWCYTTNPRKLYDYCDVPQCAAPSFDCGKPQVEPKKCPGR

Row | SMILES | IC50 (plasmin) [µM] | IC50 [1] [µM] | IC50 (aminopeptidase M; [2]) [µM] | IC50 (cathepsin D) [µM] | IC50 (thrombin) [µM] | IC50 (aminopeptidase M) [µM]
1 | CC1=C(C(=O)OC(c2ccccc2)c2ccccc2)N2C(=O)[C@H](Cl)[C@H]2S(=O)(=O)C12CC2(c1ccccc1)c1ccccc1 (single isomer, unassigned) [Example 1, Benzhydryl 7α-chloro-2-spiro(2',2'-diphenyl) cyclopropyl-3-methyl-3-cephem-4-carboxylate-1,1-dioxide] | 3.61 | 0.00475 | > 60 | > 50 | > 40 | –
2 | CC1=C(C(=O)OC(c2ccccc2)c2ccccc2)N2C(=O)[C@H](Br)[C@H]2S(=O)(=O)C12CC2(c1ccccc1)c1ccccc1 (single isomer, unassigned) [Example 2, benzhydryl 7α-bromo-2-spiro(2', 2'-diphenyl) cyclopropyl-3-methyl-3-cephem-4-carboxylate-1,1-dioxide] | 3.21 | 0.0336 | > 40 | > 50 | > 40 | –
3 | CC1=C(C(=O)OC(c2ccccc2)c2ccccc2)N2C(=O)[C@H](Br)[C@H]2S(=O)(=O)C12CC2(c1ccc(Cl)cc1)c1ccc(Cl)cc1 (single isomer, unassigned) [Example 12, Benzhydryl 7α-bromo-2-spiro [2',2'-(4',4'-dichloro)diphenyl]cyclopropyl-3-methyl-3-cephem-4-carboxylate-1,1-dioxide] | 2.21 | 0.0101 | – | > 46.2 | > 55.3 | > 55.3
4 | CC1=C(C(=O)OC(c2ccccc2)c2ccccc2)N2C(=O)[C@H](Br)[C@H]2S(=O)(=O)C12CC2(c1ccc(F)cc1)c1ccc(F)cc1 (single isomer, unassigned) [Example 13, Benzhydryl 7α-bromo-2-spiro[2',2'-(4',4'-difluoro)diphenyl] cyclopropyl-3-methyl-3-cephem-4-carboxylate-1,1-dioxide] | 3.19 | 0.00507 | – | > 50 | > 40 | > 40
5 | CC1=C(C(=O)OC(C)(C)C)N2C(=O)[C@H](Br)[C@H]2S(=O)(=O)C12CC2(c1ccccc1)c1ccccc1 (stereo partly drawn) [Example 3, t-Butyl 7α-bromo-2-spiro(2',2'-diphenyl) cyclopropyl-3-methyl-3-cephem 4-carboxylate-1,1-dioxide] | 5.51 | 0.00496 | > 40 | > 50 | > 41.9 | –
6 | CC1=C(C(=O)N2CCCC2)N2C(=O)[C@H](Br)[C@H]2S(=O)(=O)C12CC2(c1ccccc1)c1ccccc1 (stereo partly drawn) [Example 6, 7α Bromo-2-spiro(2',2'-diphenyl)cyclopropyl-3-methyl-3-cephem-4-pyrrolidine carboxamide-1,1-dioxide] | > 39 | 0.0107 | > 9.77 | > 9.77 | > 39 | –
7 | CCO[C@H]1C(=O)N2C(C(=O)OCC(Cl)(Cl)Cl)=C(C)C3(CC3(c3ccccc3)c3ccccc3)S(=O)(=O)[C@H]12 (stereo partly drawn) [Example 7, 2,2,2-Trichloroethyl-7α-ethoxy-2-spiro(2',2'-diphenyl)cyclo-propyl-3-methyl-3-cephem-4-carboxylate-1,1-dioxide] | > 10 | 0.00547 | > 10 | > 10 | > 10 | –
8 | CO[C@H]1C(=O)N2C(C(=O)OCC(Cl)(Cl)Cl)=C(C)C3(CC3(c3ccccc3)c3ccccc3)S(=O)(=O)[C@H]12 (stereo partly drawn) [Example 8, 2,2,2-Trichloroethyl-7α-methoxy-2-spiro(2',2'-diphenyl) cyclopropyl-3-methyl-3-cephem-4-carboxylate-1,1-dioxide] | 1.3 | 0.00438 | – | > 9.98 | > 9.98 | > 9.98
9 | CO[C@H]1C(=O)N2C(C(=O)OC(c3ccccc3)c3ccccc3)=C(C)C3(CC3(c3ccccc3)c3ccccc3)S(=O)(=O)[C@H]12 (stereo partly drawn) [Example 9, Benzhydryl 7α-methoxy-2-spiro (2',2'-diphenyl) cyclopropyl-3-methyl-3-cephem-4-carboxylate-1,1-dioxide] | 8.8 | 0.00363 | – | > 8.35 | > 10 | > 10
10 | CO[C@H]1C(=O)N2C(C(=O)N3CCCC3)=C(C)C3(CC3(c3ccccc3)c3ccccc3)S(=O)(=O)[C@H]12 (stereo partly drawn) [Example 10, 7α-Methoxy-2-spiro (2',2'-diphenyl)cyclopropyl-3-methyl-3-cephem-4-pyrrolidine carboxamide-1,1-dioxide] | > 40 | 0.0447 | – | > 9.97 | > 40 | > 40
11 | CCOC(=O)C1CC12C(C)=C(C(=O)OC(c1ccccc1)c1ccccc1)N1C(=O)[C@H](Br)[C@H]1S2(=O)=O (stereo partly drawn) [Example 13 (1), Benzhydryl 7α-bromo-2-spiro(2'-ethoxycarbonyl)cyclopropyl-3-methyl-3-cephem-4-carboxylate-1,1-dioxide] | 11 | 0.0644 | – | > 50 | > 40 | > 40
12 | CC1=C(C(=O)OC(c2ccccc2)c2ccccc2)N2C(=O)[C@H](Br)[C@H]2S(=O)(=O)C12CC2(C)c1ccccc1 (stereo partly drawn) [Example 13 (2), Benzhydryl 7α-bromo-2-spiro(2'-phenyl-2'-methyl) cyclopropyl-3-methyl-3-cephem-4-carboxylate-1,1-dioxide] | 5.5 | 0.00473 | – | > 46.6 | > 40 | > 40
